tested on: isolated rat aortae; test: Vasorelaxing effect on the isolated rat aortae (Referential Example 1)-1); details: inhibition of contraction induced by 40 mM KCl
Protocol: (§1) The compounds of the present invention were tested for their physiological activities by measuring the tension of isolated rat aortae isometrically.
Thoracic aortae obtained from male Wistar rats (weighing 250-350 g) were cut into ring segments about 3 mm long. The ring preparation was placed in an organ bath filled with 10 ml of Krebs-Ringer solution that was maintained at 37°C and gassed with 95% O₂ - 5% CO₂.
The preparation in the organ bath was allowed to equilibrate under resting tension of 1 g. After equilibration period, the solution in the organ bath was replaced with an isotonic solution containing 40 mM KCl to contract the preparation.
(§2) After the contraction induced by KCl had reached plateau, the concentration-response relationship for the test compound was determined by means of cumulative addition.
(§3) The relaxation response of the test compounds was expressed as the percent inhibition of the contraction induced by KCl, and the IC₅₀ value, which is a concentration required for inhibiting the contraction induced by KCl to an extent of 50%, was calculated by the Probit method from the concentration-response curve.

Row | Structure (SMILES) | IC50 [µM]
1 | N#CNC(=NCCc1ccc(Cl)cc1)c1cccnc1 [(30), N-cyano-N'-[2-(4-chlorophenyl)ethyl]-3-pyridinecarboximidamide] | 43
2 | N#CNC(=NCc1ccc(C(F)(F)F)cc1)c1ccccn1 [(8), N-cyano-N'-[4-(trifluoromethyl)benzyl]-2-pyridinecarboximidamide] | 57
3 | N#CN=C(N)c1ccncc1 [N-cyano-4-pyridine-carboxyimidamide, reference compound] | 180
4 | N#CNC(=NCC(O[N+](=O)[O-])c1ccc([N+](=O)[O-])cc1)c1ccncc1 (stereo not shown) [(50), N-cyano-N'-[2-(4-nitrophenyl)-2-nitroxyethyl]-4-pyridinecarboximidamide] | 14
5 | N#CNC(=NCCc1ccc(OCc2ccccc2)c(OCc2ccccc2)c1)c1cccnc1 [(39), N-cyano-N'-[2-(3,4-dibenzyloxyphenyl)ethyl]-3-pyridinecarboximidamide] | 48
6 | N#CNC(=NCc1ccc(Cl)c(Cl)c1)c1ccncc1 [(44), N-cyano-N'-(3,4-dichlorobenzyl)-4-pyridinecarboximidamide] | 19
7 | N#CN=C(NCCO[N+](=O)[O-])c1ccc(Cl)nc1 [(52), N-cyano-N'-(2-nitroxyethyl)-3-(6-chloropyridine)carboximidamide] | 11
8 | N#CNC(=NC(Cc1ccccc1)c1ccccc1)c1cccnc1 (stereo not shown) [(35), N-cyano-N'-(1,2-diphenylethyl)-3-pyridinecarboximidamide] | 18
9 | N#CNC(=NCc1cccc(OCc2ccccc2)c1)c1ccncc1 [(46), N-cyano-N'-(3-benzyloxybenzyl)-4-pyridinecarboximidamide] | 30
10 | Cc1ccc(CN=C(NC#N)c2cccnc2)cc1 [(18), N-cyano-N'-(4-methylbenzyl)-3-pyridinecarboximidamide] | 22
11 | N#CN=C(N)c1cccnc1 [N-cyano-3-pyridine-carboxyimidamide, reference compound] | 40000
12 | N#CNC(=NCc1ccc(Cl)cc1)c1ccccn1 [(7), N-cyano-N'-(4-chlorobenzyl)-2-pyridinecarboximidamide] | 23
13 | Cc1ccc(CCN=C(NC#N)c2ccccn2)cc1 [(9), N-cyano-N'-[2-(4-methylphenyl)ethyl]-2-pyridinecarboximidamide] | 72
14 | N#CNC(=NCCc1ccc(Cl)cc1)c1ccccn1 [(10), N-cyano-N'-[2-(4-chlorophenyl)ethyl]-2-pyridinecarboximidamide] | 40
15 | CC(C)(C)CN=C(NC#N)c1ccccn1 [(2), N-cyano-N'-(2,2-dimethylpropyl)-2-pyridinecarboximidamide] | 60
16 | N#CNC(=NCCc1ccc(NCc2ccccc2)cc1)c1cccnc1 [(31), N-cyano-N'-[2-(4-benzylaminophenyl)ethyl]-3-pyridinecarboximidamide] | 16
17 | N#CNC(=Nc1ccccc1)c1ccccn1 [(4), N-cyano-N'-phenyl-2-pyridinecarboximidamide] | 31
18 | N#CNC(=NCc1ccc(C(F)(F)F)cc1)c1cccnc1 [(21), N-cyano-N'-[4-(trifluoromethyl)benzyl]-3-pyridinecarboximidamide] | 70
19 | N#CNC(=NCC(c1ccccc1)c1ccccc1)c1cccnc1 [(36), N-cyano-N'-(2,2-diphenylethyl)-3-pyridinecarboximidamide] | 16
20 | COc1ccccc1CCN=C(NC#N)c1ccncc1 [(48), N-cyano-N'-[2-(2-methoxyphenyl)ethyl]-4-pyridinecarboximidamide] | 73
21 | N#CNC(=NCCSc1ccccc1)c1ccncc1 [(49), N-cyano-N'-(2-phenylthioethyl)-4-pyridinecarboximidamide] | 62
22 | N#CNC(=NC(c1ccccc1)c1ccccc1)c1cccnc1 [(34), N-cyano-N'-diphenylmethyl-3-pyridinecarboximidamide] | 38
23 | CSc1ccc(CN=C(NC#N)c2ccncc2)cc1 [(45), N-cyano-N'-(4-methylthiobenzyl)-4-pyridinecarboximidamide] | 49
24 | N#CNC(=NCCC(c1ccccc1)c1ccccc1)c1cccnc1 [(37), N-cyano-N'-(3,3-diphenylpropyl)-3-pyridinecarboximidamide] | 28
25 | CC(C)(C)CCN=C(NC#N)c1cccnc1 [(15), N-cyano-N'-(3,3-dimethylbutyl)-3-pyridinecarboximidamide] | 95

Row | Structure (SMILES) | IC50 [µM]
26 | N#CNC(=Nc1ccccc1)c1ccncc1 [(43), N-cyano-N'-phenyl-4-pyridinecarboximidamide] | 52
27 | N#CNC(=NCCCO[N+](=O)[O-])c1cccnc1 [(14), N-cyano-N'-(3-nitroxypropyl)-3-pyridinecarboximidamide] | 20
28 | Cc1ccc(N=C(NC#N)c2cccnc2)cc1 [(16), N-cyano-N'-(4-methylphenyl)-3-pyridinecarboximidamide] | 17
29 | COc1ccc(N=C(NC#N)c2ccccn2)cc1 [(5), N-cyano-N'-(4-methoxyphenyl)-2-pyridinecarboximidamide] | 65
30 | Cc1ccc(CN=C(NC#N)c2ccccn2)cc1 [(6), N-cyano-N'-(4-methylbenzyl)-2-pyridinecarboximidamide] | 51
31 | N#CNC(=NCc1cc(C(F)(F)F)cc(C(F)(F)F)c1)c1cccnc1 [(25), N-cyano-N'-[3,5-bis(trifluoromethyl)benzyl]-3-pyridinecarboximidamide] | 24
32 | CC(N=C(NC#N)c1ccncc1)C(O[N+](=O)[O-])c1ccc([N+](=O)[O-])cc1 (stereo not shown) [(51), N-cyano-N'-[1-methyl-2-(4-nitrophenyl)-2-nitroxyethyl]-4-pyridinecarboximidamide] | 13
33 | CC(N=C(NC#N)c1ccccn1)C(C)(C)C (stereo not shown) [(3), N-cyano-N'-(1,2,2-trimethylpropyl)-2-pyridinecarboximidamide] | 49
34 | COc1ccc(CN=C(NC#N)c2cccnc2)cc1 [(19), N-cyano-N'-(4-methoxybenzyl)-3-pyridinecarboximidamide] | 37
35 | N#CNC(=NCCCO[N+](=O)[O-])c1ccncc1 [(42), N-cyano-N'-(3-nitroxypropyl)-4-pyridinecarboximidamide] | 20
36 | N#CNC(=NCC(OCc1ccccc1)c1ccccc1)c1cccnc1 (stereo not shown) [Compound (38), N-cyano-N'-(2-benzyloxy-2-phenylethyl)-3-pyridinecarboximidamide] | 68
37 | N#CNC(=NCc1ccc(Cl)cc1)c1cccnc1 [(22), N-cyano-N'-(4-chlorobenzyl)-3-pyridinecarboximidamide] | 22
38 | N#CNC(=NCc1ccc(Cl)c(Cl)c1)c1cccnc1 [(24), N-cyano-N'-(3,4-dichlorobenzyl)-3-pyridinecarboximidamide] | 21
39 | N#CNC(=NCc1ccc([N+](=O)[O-])cc1)c1cccnc1 [(23), N-cyano-N'-(4-nitrobenzyl)-3-pyridinecarboximidamide] | 98
40 | N#CNC(=NCCc1ccc(Cl)cc1)c1ccncc1 [(47), N-cyano-N'-[2-(4-chlorophenyl)ethyl]-4-pyridinecarboximidamide] | 40
41 | CN(C)c1ccc(CN=C(NC#N)c2cccnc2)cc1 [Compound (20), N-cyano-N'-(4-dimethylaminobenzyl)-3-pyridinecarboximidamide] | 78
42 | N#CNC(=NCCCc1ccccc1)c1cccnc1 [(33), N-cyano-N'-(3-phenylpropyl)-3-pyridinecarboximidamide] | 95
43 | N#CNC(=NCc1cccc(OCc2ccccc2)c1)c1cccnc1 [(26), N-cyano-N'-(3-benzyloxybenzyl)-3-pyridinecarboximidamide] | 23
44 | N#CNC(=NCC(O[N+](=O)[O-])c1ccc([N+](=O)[O-])cc1)c1cccnc1 (stereo not shown) [(32), N-cyano-N'-[2-(4-nitrophenyl)-2-nitroxyethyl]-3-pyridinecarboximidamide] | 78
45 | N#CN=C(NCCc1ccccc1)c1ccc(Cl)nc1 [(53), N-cyano-N'-(2-phenylethyl)-3-(6-chloropyridine)carboximidamide] | 77
46 | CC(N=C(NC#N)c1ccccn1)C(O)c1ccccc1 (stereo not shown) [(11), N-cyano-N'-(2-hydroxy-1-methyl-2-phenylethyl)-2-pyridinecarboximidamide] | 12
47 | COc1ccccc1CCN=C(NC#N)c1cccnc1 [(28), N-cyano-N'-[2-(2-methoxyphenyl)ethyl]-3-pyridinecarboximidamide] | 70
48 | N#CNC(=NCc1cccs1)c1ccccn1 [(12), N-cyano-N'-(2-thienylmethyl)-2-pyridinecarboximidamide] | 24
49 | COc1ccc(NC(=NC#N)c2cccnc2)c(OC)n1 [(40), N-cyano-N'-3-(2,6-dimethoxypyridine)-3-pyridinecarboximidamide] | 40

tested on: isolated rat aortae; test: Vasorelaxing effect on the isolated rat aortae (Referential Example 2)-1); details: inhibition of contraction induced by 40 mM KCl, read-out: IC₅₀ Value
Protocol: as §1
Thoracic aortae obtained from male Wistar rats (weighing 250-350 g) were cut into ring segments about 3 mm long. The ring preparation was placed in an organ bath filled with 10 ml of Krebs-Ringer solution which was maintained at 37°C and gassed with 95% O₂ - 5% CO₂.
The preparation in the organ bath was allowed to equilibrate under resting tension 1 g. After equilibration period, the solution in the organ bath was replaced with an isotonic solution containing 40 mM KCl to contract the preparation.
as §2, §3

Row | Structure (SMILES) | IC50 [µM]
50 | N#CNC(=NCCc1ccccc1)c1ccoc1 [(65), N-cyano-N′-(2-phenylethyl)-3-furancarboximidamide] | 94
51 | N#CNC(=NCCc1ccccc1)c1ccc(C#N)cc1 [(69), N-cyano-N′-(2-phenylethyl)-4-cyanobenzenecarboximidamide] | 40
52 | N#CNC(=NCCc1ccccc1)c1cnc2ccccc2c1 [(60), N-cyano-N′-(2-phenylethyl)-3-quinolinecarboximidamide] | 6.1

— patent EP0388528B1, “Carboximidamide derivatives” (KIRIN BEER KABUSHIKI KAISHA, priority 1988, dated 1990)
